# Measurements reported in article PMC4501119, “Cholestenoic acid, an endogenous cholesterol metabolite, is a potent γ-secretase modulator” (Molecular Neurodegeneration, 2015).
# “Also recorded” adds a separate entry of the source.
# Legend:
# [1] = Tolerability of IP doses in mice; format: in vivo, mouse; conditions: up to the highest dose 100 mg/kg
# Description: (§1) 25(R)-CA powder was initially dissolved in DMSO (<4.5 % in the final mixture) and then combined with polyethylene glycol (15)-hydroxystearate (Solutol), ethanol, and water at a ratio of (15:10:75). One molar equivalent of sodium hydroxide was added to the mixture. We performed CA intraperitoneal (IP) injections to wild-type mice (C57BL/6 or CF-1). The mice were injected with 25(R)-CA on the right side of the abdomen. The injections have been performed with various time points (30 min, 1 h, 2 h, and 3 h) and with multiple doses (30 mg per kg (mg/kg), 60 mg/kg, 75 mg/kg and 100 mg/kg). The number of each cohort is 6–8. We used 30 mg/kg of CA for the time-course experiments, and for the dose–response experiments the end-point was set at 30 min. The brains and serum are harvested and frozen for brain Aβ extraction.
# [2] = tested on: brain mAβ42, mAβ38 and total mAβ; assay: Brain Aβ levels after intraperitoneal injection in wild type mice; format: in vivo, mouse (C57BL/6 or CF-1)
# Description: as §1
# The mouse brains were harvested at the age of 3 months. The brains were weighed and recorded. The Diethylamine/Sodium Chloride (DEA/NaCl) extraction buffer (0.4 % DEA) was added to each sample and homogenized using a sonicator. The samples were transferred to a poly-carbonate centrifuge tube and spun down at 50,000xg for 30 min at 4 °C. The supernatant was loaded on the vacuum manifold with the appropriate number of HLB Oasis columns. The samples were loaded on the conditioned column, filtered, and eluted using prepared elution buffer (90 % Methanol, 2 % NH4OH). The eluates are concentrated using the Thermo-Savant SpeedVac concentrator for a minimum of 2 h at 55 °C with radiant heat. The concentrated samples are reconstituted in a blocking buffer (0.67 % Bovine serum albumin (BSA)) at the appropriate volume.
# Monoclonal antibodies to Aβ were generated by the Mayo Clinic Immunology Core facilities (Jacksonville, FL, USA). […] Total Aβ level was determined by capture with Ab5 and detected with horseradish peroxidase (HRP)-conjugated 4G8 (a monoclonal antibody against Aβ17-24; Covance, Waltham, MA, USA) with the other Aβ peptides detected with HRP-conjugated Ab5. […] Following these steps, the Aβ is monomeric, as determined by size-exclusion chromatography.
# [3] = tested on: endogenous mouse Aβ (mAβ) in primary neuron-glia cultures; assay: Primary mixed neuron-glia culture, endogenous mouse Aβ ELISA; format: cell-based
# Description: Primary mixed neuron-glia cultures were prepared from postnatal day 0 (P0) C3HBL/6 mouse brains (Harlan Labs). Cerebral cortices were dissected from P0 mouse brains and were dissociated in 2 mg/ml papain (Worthington) and 50 μg/mL DNAse I (Sigma) at 37 °C for 20 min. They were then washed three times in sterile Hank’s balanced salt solution (HBSS) to inactivate the papain and switched to 5 % fetal bovine serume (HyClone) in Neurobasal-A growth media (Gibco), which includes 0.5 mM L-glutamine (Gibco), 0.5 mM GlutaMax (Life Technologies), 0.01 % antibiotic-antimycotic (Gibco), and 0.02 % SM1 supplement (Stemcell). The tissue mixture was then triturated three times using a 5 mL pipette followed by a Pasteur pipette, and strained through a 70 μm cell strainer. The cell mixture was then centrifuged at 200xg for 3 min, and re-suspended in fresh Neurobasal-A media. They were then plated onto poly-D-lysine coated 96well plates at 100,000 cells/well. Cells were maintained in the Neurobasal-A growth media mentioned above without fetal bovine serum (FBS) at 37 °C in a humidified 5 % CO2 chamber.
# Monoclonal antibodies to Aβ were generated by the Mayo Clinic Immunology Core facilities (Jacksonville, FL, USA). Ab5 recognizes an epitope in the amino terminus of Aβ (Aβ1-16), recognizes both monomeric and aggregated Aβ, and is human specific. […] Ab 2.1.3 was raised against Aβ35-42 and is specific for Aβx-42. […] For cell-based screens, Aβ was captured from conditioned medium with either Ab5, Ab38, Ab13.1.1, or Ab2.1.3 (coated at 10-50 μg/ml in EC buffer: 5 mM NaH2PO4-H2O, 20 mM Na2HPO4, 400 mM NaCl, 2.5 mM EDTA-full name, 151.5 μM BSA, 813 μM CHAPS, and 7.7 mM NaN3) on Immulon 4HBX Flat-Bottom Microfilter 96-well plates (Thermo Scientific, Waltham, MA, USA). Total Aβ level was determined by capture with Ab5 and detected with horseradish peroxidase (HRP)-conjugated 4G8 (a monoclonal antibody against Aβ17-24; Covance, Waltham, MA, USA) with the other Aβ peptides detected with HRP-conjugated Ab5. For the cell-free assay and measuring mouse endogenous Aβ, HRP-conjugated 4G8 was used as the secondary detection antibody. Aβ standards (Bachem, King of Prussia, PA, USA) were prepared by dissolving in hexafluoroisopropanol (HFIP) at 1 mg/ml with sonication, dried under nitrogen, resuspended at 2 mg/ml HFIP, sonicated again and dried under nitrogen. The resulting Aβ was resuspended in 0.01 % ammonium hydroxide, portioned into aliquots in EC buffer, and frozen at −80 °C. Following these steps, the Aβ is monomeric, as determined by size-exclusion chromatography.
# [4] = tested on: Aβ peptides in CHO-2B7 cells; assay: IP/MS (MALDI-TOF) Aβ profile of CHO-2B7 conditioned media; format: cell-based, Chinese hamster; conditions: 3 μM, vs DMSO control
# Description: Chinese hamster ovary (CHO) cells stably overexpressing APP695 (CHO-2B7 cells) were grown in Ham’s F-12 medium (Life Technologies) supplemented with 10 % fetal bovine serum and 100 units/ml of penicillin and 100 μg/ml streptomycin. Cells were grown at 37 °C in a humidified atmosphere containing 5 % CO2 in tissue culture plates (Costar). The cells were harvested at confluence and then utilized for biochemical analyses. Compounds were dissolved in dimethyl sulfoxide (DMSO) and screened in CHO-2B7 cells. The cells were incubated for 16 h in the presence of the compound diluted into OptiMEM-reduced serum medium (Life Technologies, Carlsbad, CA, USA) containing 1 % fetal bovine serum.
# Conditioned media from the CHO-2B7 cells and the samples prepared from in vitro γ-secretase studies were used to analyze Aβ and AICD profiles using matrix-assisted laser desorption/ionization time of flight (MALDI-TOF) mass spectrometry analysis. The secreted Aβ peptides were analyzed as previously described with the following modifications. Briefly, the Aβ peptides were immunoprecipitated using Ab5 recognizing the Aβ1-16 epitope and sheep anti-mouse IgG magnetic Dynabeads (Life Technologies, catalog no. 11201D) and the AICD fragments were captured using anti-Flag M2 magnetic beads (Sigma). […] Samples were analyzed using a Bruker Microflex LRF-MALDI-TOF mass spectrometer.
structure (smiles),measurement,setting,value
"CC(CCC[C@@H](C)C(=O)O)[C@H]1CCC2C3CC=C4C[C@@H](O)CC[C@]4(C)C3CC[C@@]21C (stereo partly drawn) [Cmpd 2a, 25(R)-cholestenoic acid]",tolerability,[1],well tolerated
same,brain Aβ levels,"[2]; 30 mg/kg IP, brains harvested after 30 min, 1, 2 and 3 h",no changes
same,"brain mAβ42, mAβ38 and total mAβ","[2]; 30, 60, 75, 100 mg/kg IP, vs vehicle-injected control, listed as CA",No significant effects; also recorded: did not show acute effects; also recorded: did not affect
same,decrease of mAβ42 production,[3]; 3 μM,~ 60%
same,Aβ42:Aβ38 ratio,[3]; 3 μM and 10 μM,significant decrease
same,Aβ38 production,[3]; 10 μM,increased
same,decrease of mAβ42 production,[3]; 10 μM,~ 75%
same,Aβ spectra by mass spectrometry,[4],increased Aβ38 peak and decreased Aβ42 peak with no significant changes in Aβ40 peak
